# Source: the supplement of paper PMC11061612
# Tests used:
# Experiment in all cases: combination Emax (second highest fraction inhibited in the dose matrix, 72 h); higher = more inhibition; extreme values may be limits of the assay
# [1] = tested on: BT-474 (Breast Carcinoma)
# Method in brief: (§1)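 Bliss excess equals the observed combination effect minus the expected value EA + EB − EA·EB, where EA and EB are the effects of each agent alone. Combination Emax is the second-highest inhibition within the matrix. Inhibition was scaled from CellTiter-Glo 2.0 luminescence, with 0 set by vehicle wells and 1 by blank wells, after 72 hours of two-drug dosing of cells plated in 1536-well plates.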
# [2] = tested on: COR-L105 (Lung Adenocarcinoma)
# Method in brief: as §1
# DK-MG (Glioblastoma) = tested on: DK-MG (Glioblastoma)
# Method in brief: as §1
# [3] = tested on: HT-3 (Cervical Carcinoma)
# Method in brief: as §1
# [4] = tested on: JURL-MK1 (Chronic Myelogenous Leukemia)
# Method in brief: as §1
# [5] = tested on: MDA-MB-175-VII (Breast Carcinoma)
# Method in brief: as §1
# MG-63 (Osteosarcoma) = tested on: MG-63 (Osteosarcoma)
# Method in brief: as §1
# [6] = tested on: MRK-nu-1 (Breast Carcinoma)
# Method in brief: as §1
# [7] = tested on: NCI-H1648 (Lung Adenocarcinoma)
# Method in brief: as §1
# [8] = tested on: NCI-H1944 (Lung Adenocarcinoma)
# Method in brief: as §1
# [9] = tested on: NCI-H1975 (Lung Adenocarcinoma)
# Method in brief: as §1
# [10] = tested on: NCI-H2023 (Non-Small Cell Lung Carcinoma)
# Method in brief: as §1
# [11] = tested on: NCI-H2170 (Squamous Cell Lung Carcinoma)
# Method in brief: as §1
# NCI-H2452 (Mesothelioma) = tested on: NCI-H2452 (Mesothelioma)
# Method in brief: as §1
# [12] = tested on: NTERA-2-cl-D1 (Other Solid Carcinomas)
# Method in brief: as §1
# [13] = tested on: OCI-M1 (Acute Myeloid Leukemia)
# Method in brief: as §1
# [14] = tested on: OVKATE (Ovarian Carcinoma)
# Method in brief: as §1
# [15] = tested on: SNU-1 (Gastric Carcinoma)
# Method in brief: as §1
# [16] = tested on: SUP-HD1 (Hodgkin's Lymphoma)
# Method in brief: as §1
# [17] = tested on: TOV-21G (Ovarian Carcinoma)
# Method in brief: as §1
compound,measurement,setting,value
"CCN(CCO)CCCOc1ccc2c(Nc3cc(CC(=O)Nc4cccc(F)c4)[nH]n3)ncnc2c1 [AZD2811] + O=C(c1cc(Cc2n[nH]c(=O)c3ccccc23)ccc1F)N1CCN(C(=O)C2CC2)CC1 [Olaparib] (first compound max 1 µM, 7x7, partner max 10 µM)",combination Emax,[1],0.168
same,combination Emax,[2],0.231
same,combination Emax,DK-MG (Glioblastoma),0.258
same,combination Emax,[3],0.18
same,combination Emax,[4],0.688
same,combination Emax,[5],0.23
same,combination Emax,MG-63 (Osteosarcoma),0.335
same,combination Emax,[6],0.491
same,combination Emax,[7],0.233
same,combination Emax,[8],0.243
same,combination Emax,[9],0.191
same,combination Emax,[10],0.415
same,combination Emax,[11],0.623
same,combination Emax,NCI-H2452 (Mesothelioma),0.423
same,combination Emax,[12],0.65
same,combination Emax,[13],0.268
same,combination Emax,[14],0.239
same,combination Emax,[15],0.381
same,combination Emax,[16],0.718
same,combination Emax,[17],0.288
"CN(CCO)CC[C@H](CSc1ccccc1)Nc1ccc(S(=O)(=O)NC(=O)c2ccc(N3CCC([C@@H](O)c4ccccc4-c4ccc(Cl)cc4)CC3)cc2)cc1S(=O)(=O)C(F)(F)F [AZD4320] + C=CCn1c(=O)c2cnc(Nc3ccc(N4CCN(C)CC4)cc3)nc2n1-c1cccc(C(C)(C)O)n1 [AZD1775] (first compound max 1 µM, partner max 1 µM)",combination Emax,[1],0.526
same,combination Emax,[2],0.478
same,combination Emax,DK-MG (Glioblastoma),0.283
same,combination Emax,[3],0.264
same,combination Emax,[4],1
same,combination Emax,[5],0.32
same,combination Emax,MG-63 (Osteosarcoma),0.266
same,combination Emax,[6],0.174
same,combination Emax,[7],0.707
same,combination Emax,[8],0.813
same,combination Emax,[9],0.562
same,combination Emax,[10],0.623
same,combination Emax,[11],0.8
same,combination Emax,NCI-H2452 (Mesothelioma),0.737
same,combination Emax,[12],0.775
same,combination Emax,[13],1
same,combination Emax,[14],0.528
same,combination Emax,[15],0.929
same,combination Emax,[16],0.952
same,combination Emax,[17],0.721
"CN(CCO)CC[C@H](CSc1ccccc1)Nc1ccc(S(=O)(=O)NC(=O)c2ccc(N3CCC([C@@H](O)c4ccccc4-c4ccc(Cl)cc4)CC3)cc2)cc1S(=O)(=O)C(F)(F)F [AZD4320] + CN(C)CCCOc1ccc(-c2ccc3ncc4c(c3c2)n(C2CCOCC2)c(=O)n4C)cn1 [AZD0156] (first compound max 1 µM, 7x7, partner max 1 µM)",combination Emax,[1],0.211
same,combination Emax,[2],0.261
same,combination Emax,DK-MG (Glioblastoma),0.192
same,combination Emax,[3],0.143
same,combination Emax,[4],0.825
same,combination Emax,[5],0.224
same,combination Emax,MG-63 (Osteosarcoma),0.136
same,combination Emax,[6],0.164
same,combination Emax,[7],0.55
same,combination Emax,[8],0.322
same,combination Emax,[9],0.256
same,combination Emax,[10],0.22
same,combination Emax,[11],0.613
same,combination Emax,NCI-H2452 (Mesothelioma),0.246
same,combination Emax,[12],0.416
same,combination Emax,[13],0.988
same,combination Emax,[14],0.29
same,combination Emax,[15],0.397
same,combination Emax,[16],0.961
same,combination Emax,[17],0.209
"CN(CCO)CC[C@H](CSc1ccccc1)Nc1ccc(S(=O)(=O)NC(=O)c2ccc(N3CCC([C@@H](O)c4ccccc4-c4ccc(Cl)cc4)CC3)cc2)cc1S(=O)(=O)C(F)(F)F [AZD4320] + Cn1cnc2c(F)c(Nc3ccc(Br)cc3Cl)c(C(=O)NOCCO)cc21 [Selumetinib] (first compound max 1 µM, 7x7, partner max 3 µM)",combination Emax,[1],0.282
same,combination Emax,[2],0.543
same,combination Emax,DK-MG (Glioblastoma),0.336
same,combination Emax,[3],0.257
same,combination Emax,[4],0.999
same,combination Emax,[5],0.598
same,combination Emax,MG-63 (Osteosarcoma),0.365
same,combination Emax,[6],0.562
same,combination Emax,[7],0.83
same,combination Emax,[8],0.702
same,combination Emax,[9],0.417
same,combination Emax,[10],0.268
same,combination Emax,[11],0.676
same,combination Emax,NCI-H2452 (Mesothelioma),0.346
same,combination Emax,[12],0.987
same,combination Emax,[13],1
same,combination Emax,[14],0.501
same,combination Emax,[15],0.952
same,combination Emax,[16],0.983
same,combination Emax,[17],0.503
"COc1nnc2ccc(N3CCC(c4ccc(OCCN5CCN(C)C(=O)[C@H]5C)cc4)CC3)nn12 [AZD5153] + C=CCn1c(=O)c2cnc(Nc3ccc(N4CCN(C)CC4)cc3)nc2n1-c1cccc(C(C)(C)O)n1 [AZD1775] (first compound max 1 µM, partner max 1 µM)",combination Emax,[1],0.526
same,combination Emax,[2],0.474
same,combination Emax,DK-MG (Glioblastoma),0.689
same,combination Emax,[3],0.553
same,combination Emax,[4],0.998
same,combination Emax,[5],0.432
same,combination Emax,MG-63 (Osteosarcoma),0.671
same,combination Emax,[6],0.309
same,combination Emax,[7],0.737
same,combination Emax,[8],0.84
same,combination Emax,[9],0.728
same,combination Emax,[10],0.501
same,combination Emax,[11],0.735
same,combination Emax,NCI-H2452 (Mesothelioma),0.605
same,combination Emax,[12],0.672
same,combination Emax,[13],0.999
same,combination Emax,[14],0.344
same,combination Emax,[15],0.737
same,combination Emax,[16],0.783
same,combination Emax,[17],0.891
"COc1nnc2ccc(N3CCC(c4ccc(OCCN5CCN(C)C(=O)[C@H]5C)cc4)CC3)nn12 [AZD5153] + CC1(C)CCC(CN2CCN(c3ccc(C(=O)NS(=O)(=O)c4ccc(NCC5CCOCC5)c([N+](=O)[O-])c4)c(Oc4cnc5[nH]ccc5c4)c3)CC2)=C(c2ccc(Cl)cc2)C1 [Venetoclax] (first compound max 1 µM, 7x7, partner max 1 µM)",combination Emax,[1],0.353
same,combination Emax,[2],0.507
same,combination Emax,DK-MG (Glioblastoma),0.539
same,combination Emax,[3],0.278
same,combination Emax,[4],0.873
same,combination Emax,[5],0.475
same,combination Emax,MG-63 (Osteosarcoma),0.646
same,combination Emax,[6],0.468
same,combination Emax,[7],0.68
same,combination Emax,[8],0.566
same,combination Emax,[9],0.667
same,combination Emax,[10],0.378
same,combination Emax,[11],0.484
same,combination Emax,NCI-H2452 (Mesothelioma),0.411
same,combination Emax,[12],0.654
same,combination Emax,[13],1
same,combination Emax,[14],0.35
same,combination Emax,[15],0.645
same,combination Emax,[16],0.955
same,combination Emax,[17],0.623
